Laboratory results as given in US12195482B1 (Arcus Biosciences, Inc., priority 2022, dated 2025).

Key:
[1] = target: T1, recombinant human MER (Homo sapiens, UniProt Q12866); test: Biochemical potency, HTRF KinEASE-TK kinase assay; details: 1 nM MER, 700 μM ATP
T1 construct: purchased Invitrogen
T1 sequence (Q12866 21-999): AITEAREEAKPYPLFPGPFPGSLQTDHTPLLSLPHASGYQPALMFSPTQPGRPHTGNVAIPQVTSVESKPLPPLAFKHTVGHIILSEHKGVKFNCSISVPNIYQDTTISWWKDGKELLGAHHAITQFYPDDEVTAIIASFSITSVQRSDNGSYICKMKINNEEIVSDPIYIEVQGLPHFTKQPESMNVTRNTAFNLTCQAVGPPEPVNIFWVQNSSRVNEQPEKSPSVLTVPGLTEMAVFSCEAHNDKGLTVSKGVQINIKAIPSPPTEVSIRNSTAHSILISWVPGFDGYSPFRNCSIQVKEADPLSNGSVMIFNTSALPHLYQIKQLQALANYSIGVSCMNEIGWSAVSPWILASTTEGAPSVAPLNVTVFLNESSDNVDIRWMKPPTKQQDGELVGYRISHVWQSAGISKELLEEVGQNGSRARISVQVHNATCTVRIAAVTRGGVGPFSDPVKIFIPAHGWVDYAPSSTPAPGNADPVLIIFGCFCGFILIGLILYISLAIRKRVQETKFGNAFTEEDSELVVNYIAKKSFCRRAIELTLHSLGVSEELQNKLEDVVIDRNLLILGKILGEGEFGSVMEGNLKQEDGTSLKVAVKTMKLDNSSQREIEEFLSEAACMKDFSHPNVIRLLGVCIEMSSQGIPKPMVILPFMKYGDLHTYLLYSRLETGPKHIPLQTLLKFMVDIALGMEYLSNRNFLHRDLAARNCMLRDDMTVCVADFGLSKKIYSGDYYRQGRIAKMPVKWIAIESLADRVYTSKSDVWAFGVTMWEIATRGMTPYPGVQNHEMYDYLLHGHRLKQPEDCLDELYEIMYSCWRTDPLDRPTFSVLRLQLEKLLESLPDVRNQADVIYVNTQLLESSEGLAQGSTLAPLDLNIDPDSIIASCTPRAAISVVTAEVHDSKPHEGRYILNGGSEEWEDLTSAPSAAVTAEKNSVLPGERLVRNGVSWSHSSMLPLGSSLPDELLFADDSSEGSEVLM
Method: Measurement of Biochemical Compound Potency of Axl Inhibitors
Purified recombinant human AXL, TYRO3 and MER proteins were purchased from Invitrogen™. 10 nM AXL, 2 nM TYRO3 or MER were incubated with varying concentrations of compounds in 50 mM HEPES, pH 7.4, 10 mM MgCl2, 0.01% BSA, 1 mM DTT and 2% DMSO in a total volume of 20 μl in a 384-well microplate (Corning™ #3640) at RT for 1 h. The AXL, TYRO3 and MER enzymatic reaction was initiated by transferring 10 μl of enzyme and compound mixture into 10 μl of 1.6 μM TK Substrate-biotin (HTRF® KinEASE-TK kit, Cisbio) and 1400 μM ATP pre-incubated in 50 mM HEPES, pH 7.4, 10 mM MgCl2, 0.01% BSA, 1 mM DTT in a 384-well microplate (Corning™ #3640) at RT, giving the final reaction conditions: 5 nM AXL, 1 nM TYRO3 or MER, 800 nM TK Substrate-biotin and 700 μM ATP in 50 mM HEPES, pH 7.4, 10 mM MgCl2, 0.01% BSA, 1 mM DTT and 1% DMSO with varying concentrations of compounds. Following 2 h incubation at RT, the AXL, TYRO3 and MER enzymatic reaction was stopped by transfer of 10 μl of reaction into 10 μl of detection mix (400 nM Streptavidin-XL665, 200-fold dilution TK Antibody-Cryptate and detection buffer, HTRF® KinEASE-TK kit, Cisbio) in a white 384-well microplate (Perkin Elmer, OptiPlate 384). After 1 h incubation at RT, the plate was put into a plate reader (Evision) to read at 665/620 nm (acceptor/donor) for HTRF. The value of the DMSO blank (MIN inhibition=100% activity) was used as a negative control. The positive control was established by adding 5 μl of enzyme and DMSO mixture into 10 μl of detection mix followed by addition of 5 μl of TK Substrate-biotin and ATP mixture (MAX inhibition=0% activity). To calculate the percent activity, Equation 1 was used. Ratio665/620 is the value at a given compound concentration: […]

[2] = target: T2, p-AXL (Homo sapiens, UniProt P30530); test: Axl phosphorylation inhibition ELISA in HEK293T cells transfected with NanoLuc-tagged AXL; type: cell-based; details: 1 h compound incubation, media (OptiMEM)
T2 construct: expressed in transfected cells; host or cells: HEK293T
T2 sequence (P30530 26-894): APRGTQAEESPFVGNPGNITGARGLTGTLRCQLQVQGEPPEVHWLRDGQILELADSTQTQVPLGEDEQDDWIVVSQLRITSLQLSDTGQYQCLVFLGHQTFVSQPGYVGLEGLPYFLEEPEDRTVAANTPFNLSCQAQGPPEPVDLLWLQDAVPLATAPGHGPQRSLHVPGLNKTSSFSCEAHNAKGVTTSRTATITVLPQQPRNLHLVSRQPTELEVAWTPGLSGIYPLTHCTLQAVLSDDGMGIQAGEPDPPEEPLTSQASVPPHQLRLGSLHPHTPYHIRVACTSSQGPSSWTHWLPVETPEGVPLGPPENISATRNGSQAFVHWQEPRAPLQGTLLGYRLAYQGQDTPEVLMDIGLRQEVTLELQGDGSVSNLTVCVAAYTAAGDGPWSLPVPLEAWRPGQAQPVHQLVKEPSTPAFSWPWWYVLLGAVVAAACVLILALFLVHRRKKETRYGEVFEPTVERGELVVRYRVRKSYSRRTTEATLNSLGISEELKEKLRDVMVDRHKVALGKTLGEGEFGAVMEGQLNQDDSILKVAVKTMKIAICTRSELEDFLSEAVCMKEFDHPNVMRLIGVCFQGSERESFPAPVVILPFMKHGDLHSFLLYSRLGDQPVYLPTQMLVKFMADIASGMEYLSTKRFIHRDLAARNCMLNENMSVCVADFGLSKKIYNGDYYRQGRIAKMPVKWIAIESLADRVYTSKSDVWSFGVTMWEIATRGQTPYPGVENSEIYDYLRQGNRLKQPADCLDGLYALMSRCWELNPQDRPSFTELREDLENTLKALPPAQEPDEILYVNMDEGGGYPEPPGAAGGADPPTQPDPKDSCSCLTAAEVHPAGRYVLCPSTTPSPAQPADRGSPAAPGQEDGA
Summary of the method: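 Phospho-AXL detected by luminescence of NanoLuc tag after capture of cell lysate on biotinylated anti-phospho-tyrosine mAb plates (2 h). Lysates came from transiently transfected HEK293T cells treated 1 h at 37° C with serial 2-fold dilutions (22 points). IC50 by standard 4-parameter logistic fitting.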

[3] = target: T3, Axl (Homo sapiens, UniProt P30530); test: Biochemical potency, HTRF KinEASE-TK kinase assay; parameters: purchased Invitrogen; details: 5 nM AXL, 700 μM ATP
T3 sequence (P30530 26-894): T2 sequence (P30530 26-894)
Summary of the method: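 Phosphorylation of a biotinylated tyrosine-kinase peptide (800 nM) by AXL (5 nM) or TYRO3/MER (1 nM) is measured at 700 µM ATP after 2 h at room temperature, following 1 h enzyme–compound preincubation. Signal is the time-resolved FRET ratio, converted to percent activity.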

IC50 [1] [nM] | IC50 [2] [nM] | IC50 [3] [nM] | Compound
100 to 1000 | 100 to 1000 | < 100 | O=C1OCCN1c1nccnc1-c1ccc(-c2n[nH]c3ncc(-c4ccc5c(c4)CC[C@@H](N4C6COCC4C6)CC5)cc23)cc1 [Example 126, 3-[3-(4-{5-[(7S)-7-{3-Oxa-6-azabicyclo[3.1.1]heptan-6-yl}-6,7,8,9-tetrahydro-5H-benzo[7]annulen-2-yl]-1H-pyrazolo[3,4-b]pyridin-3-yl}phenyl)pyrazin-2-yl]-1,3-oxazolidin-2-one]
100 to 1000 | < 100 | < 100 | Cc1cccnc1-c1ccc(-c2n[nH]c3ncc(-c4ccc5c(c4)CC[C@@H](N4C6COCC4C6)CC5)cc23)nn1 [Example 17, 6-[(7S)-3-[3-[6-(3-Methylpyridin-2-yl)pyridazin-3-yl]-1H-pyrazolo[3,4-b]pyridin-5-yl]-6,7,8,9-tetrahydro-5H-benzo[7]annulen-7-yl]-3-oxa-6-azabicyclo[3.1.1]heptane]
100 to 1000 | < 100 | < 100 | Cc1ccc(C)c(-c2ccc(-c3n[nH]c4ncc(-c5ccc6c(c5)CC[C@@H](N5C7COC[C@H]5C7)CC6)cc34)nc2)n1 [Example 9, 3,6-Dimethyl-6′-{5-[(7S)-7-[(1R)-3-oxa-6-azabicyclo[3.1.1]heptan-6-yl]-6,7,8,9-tetrahydro-5H-benzo[7]annulen-2-yl]-1H-pyrazolo[3,4-b]pyridin-3-yl}-2,3′-bipyridine]
100 to 1000 | < 100 | < 100 | Cc1cccnc1-n1cc(-c2n[nH]c3ncc(-c4ccc5c(c4)CC[C@@H](N4C6COCC4C6)CC5)cc23)cn1 [Example 79, 6-[(7S)-2-{3-[1-(3-Methylpyridin-2-yl)-1H-pyrazol-4-yl]-1H-pyrazolo[3,4-b]pyridin-5-yl}-6,7,8,9-tetrahydro-5H-benzo[7]annulen-7-yl]-3-oxa-6-azabicyclo[3.1.1]heptane]
> 1000 | < 100 | < 100 | Cc1nccnc1-c1ccc(-c2n[nH]c3ncc(-c4ccc5c(c4)CC[C@@H](N4C6COCC4C6)CC5)cc23)nc1 [Example 55, 6-[(7S)-2-{3-[5-(3-Methylpyrazin-2-yl)pyridin-2-yl]-1H-pyrazolo[3,4-b]pyridin-5-yl}-6,7,8,9-tetrahydro-5H-benzo[7]annulen-7-yl]-3-oxa-6-azabicyclo[3.1.1]heptane]
